Laboratory results as given in US8889075B2, “Apparatus for producing water having redox activity” (Kitakyushu Foundation for the Advancement of Industry, …, priority 2007, dated 2014).

Test system: active oxygen responsive calcium channel (TPC1 channel) of tobacco BY-2 cells
Assay: aequorin luminescence of tobacco BY-2 culture cells after adding reaction water (evaluation of redox activity)
Format: cell-based
Conditions: for suppression of the aequorin luminescence reaction induced by water containing active oxygen species: agent added to the reaction, FIG. 11
Description: In a living organism, Ca^2+ is a signal-transmitting substance which becomes a key in an information transmission path which controls metabolism and gene expression. Usually, a concentration of cytoplasm free calcium ion (hereinafter abbreviated as [Ca^2+]cyt) in live cell is maintained at low concentration and with a difference of 10^6 to 10^7 times compared to extracellular cytoplasm free calcium ion. On a cell membranes of living organisms including plants, calcium channels which constitute calcium inflow paths which are activated and open in response to a specific stimulus exist. The presence of most of calcium channels is elucidated at a gene level or at a protein level. […] As a method of nondestructively measuring the behavior of Ca^2+ in the cell, particularly, a change of [Ca^2+]cyt, a method of monitoring the change of [Ca^2+]cyt in response to various stimulations using cells to which gene of aequorin which is Ca^2+ responsive photoprotein derived from Aequorea Victoria is established. Due to this method, it is possible to monitor the change of [Ca^2+]cyt real time by observing bioluminescence. Accordingly, it is possible to determine whether or not water is turned into water having redox reaction in which the redox action is actually generated and the intracellular response is brought about. […] By evaluating effect of addition of aluminum as an ion channel blocker and effects of an active oxygen removing agent, it is possible to determine whether or not a specific active oxygen responsive calcium channel is stimulated (Kawano, T., Kadono, T., Fumoto, […]., Kuse, M. Isobe, M. Furuichi, T. and Muto, S. (2004) Aluminum as a specific inhibitor of plant TPC1 Ca^2+ channels. Biochemical and Biophysical Research Communications 324 (1): 40-45). Accordingly, by using the experimental system, it is possible to evaluate whether or not active oxygen species are present at a level where active oxygen species can stimulate calcium information transmission which is a key of various physiological action including the cell death or the gene expression in the plant cell. […] 100 ml of water having redox activity is added to 500 ml of suspension of cells in which aequorin is expressed (1:5 mixture, 600 ml in total), and CLA chemiluminescence and aequorin luminescence are measured. The luminescence intensity is marked as relative luminescence intensity (rlu). […]

| SMILES | suppression of the aequorin luminescence reaction induced by water containing active oxygen species | concentration of superoxide anion radicals needed for water to have redox activity (intracellular response) (comparison of dissolved oxygen 8 mg/L and 30 mg/L samples, UV plus ultrasonic vibrations, FIG. 12) |
| --- | --- | --- |
| [Al+3] [Al^3+] | suppressed | – |
| [La+3] [La^3+] | suppressed | – |
| O=S(=O)(O)c1cc(O)c(O)c(S(=O)(=O)O)c1 [Tiron] | suppressed | – |
| [O]O [superoxide anion radicals] | – | at least 5 mM |
